Test results reported in the supplement of paper PMC10307832.

Legend:
Assay in all cases: relative viability (nuclei count vs DMSO), 5 days (fraction); higher = more cells survive
Masitinib + Phenformin = compound: Cc1ccc(NC(=O)c2ccc(CN3CCN(C)CC3)cc2)cc1Nc1nc(-c2cccnc2)cs1 [Masitinib] + N=C(N)NC(=N)NCCc1ccccc1 [Phenformin] (partner 250 µM)
Procedure, shortened: (§1)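 Relative viability divides the nuclei count in treated wells by that in vehicle wells. Lung cancer cell lines were seeded in 1536-well plates, dosed by pin tool the next day, and fixed and stained after 5 days in one step with final 0.05% Triton X-100, 1% formaldehyde and 1 ug/ml Hoechst. Dosing was a single drug or a fixed anchor-drug dose plus five library-drug doses (not always all listed) in √10 steps, and values are medians of duplicate plates imaged at 4×.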

Masitinib + Palbociclib = compound: Cc1ccc(NC(=O)c2ccc(CN3CCN(C)CC3)cc2)cc1Nc1nc(-c2cccnc2)cs1 [Masitinib] + CC(=O)c1c(C)c2cnc(Nc3ccc(N4CCNCC4)cn3)nc2n(C2CCCC2)c1=O [Palbociclib] (partner 0.5 µM)
Procedure, shortened: as §1

Masitinib + Alpelisib = compound: Cc1ccc(NC(=O)c2ccc(CN3CCN(C)CC3)cc2)cc1Nc1nc(-c2cccnc2)cs1 [Masitinib] + Cc1nc(NC(=O)N2CCC[C@H]2C(N)=O)sc1-c1ccnc(C(C)(C)C(F)(F)F)c1 [Alpelisib] (partner 2 µM)
Procedure, shortened: as §1

Masitinib + Tozasertib = compound: Cc1ccc(NC(=O)c2ccc(CN3CCN(C)CC3)cc2)cc1Nc1nc(-c2cccnc2)cs1 [Masitinib] + Cc1cc(Nc2cc(N3CCN(C)CC3)nc(Sc3ccc(NC(=O)C4CC4)cc3)n2)n[nH]1 [Tozasertib] (partner 0.1 µM)
Procedure, shortened: as §1

Cell Line	relative viability (Masitinib + Phenformin; first compound 0.01 µM)	relative viability (Masitinib + Phenformin; first compound 0.03162 µM)	relative viability (Masitinib + Phenformin; first compound 0.1 µM)	relative viability (Masitinib + Phenformin; first compound 0.3162 µM)	relative viability (Masitinib + Phenformin; first compound 1 µM)	relative viability (Masitinib + Palbociclib; first compound 0.01 µM)	relative viability (Masitinib + Palbociclib; first compound 0.03162 µM)	relative viability (Masitinib + Palbociclib; first compound 0.1 µM)	relative viability (Masitinib + Palbociclib; first compound 0.3162 µM)	relative viability (Masitinib + Palbociclib; first compound 1 µM)	relative viability (Masitinib + Alpelisib; first compound 0.01 µM)	relative viability (Masitinib + Alpelisib; first compound 0.03162 µM)	relative viability (Masitinib + Alpelisib; first compound 0.1 µM)	relative viability (Masitinib + Alpelisib; first compound 0.3162 µM)	relative viability (Masitinib + Alpelisib; first compound 1 µM)	relative viability (Masitinib + Tozasertib; first compound 0.01 µM)	relative viability (Masitinib + Tozasertib; first compound 0.03162 µM)	relative viability (Masitinib + Tozasertib; first compound 0.1 µM)	relative viability (Masitinib + Tozasertib; first compound 0.3162 µM)	relative viability (Masitinib + Tozasertib; first compound 1 µM)
201T	0.362	0.409	0.373	0.471	0.44	0.326	0.386	0.364	0.369	0.375	0.866	1.01	0.978	0.877	0.989	0.711	1.01	0.85	0.789	0.926
A549	0.148	0.186	0.153	0.198	0.12						0.773	0.712	1.01	0.938	0.683					
A-427		0.292		0.309	0.235	0.453	0.557	0.548	0.525	0.488		1.09		1.05	1.08		0.214		0.171	0.227
ABC-1	0.204	0.24	0.228	0.209	0.234	0.699	0.855	0.784	0.598	0.661	1.26	1.04	1.01	0.813	1.01	0.223	0.163	0.168	0.226	0.18
BEN	0.288		0.268	0.272	0.253	0.42	0.431	0.51	0.513	0.46	1.21	0.901	1.3	1.34	0.945	0.481	0.506	0.561	0.483	0.481
CAL-12T	0.525	0.637	0.594	0.553	0.509	0.445	0.333	0.455	0.305	0.502	1.21	1.2	1.18	1.36	1.18	0.303	0.282	0.307	0.192	0.234
COR-L23	0.415	0.434	0.507	0.428	0.417	0.296	0.257	0.298	0.329	0.279	0.862	0.81	0.861	0.848	0.852	0.207	0.164	0.168	0.124	0.15
COR-L 105	0.505	0.542	0.604	0.515	0.425	0.422	0.394	0.435	0.382	0.348	1	1.02	1.05	0.879	1.15	0.377	0.353	0.361	0.333	0.317
Calu-6											1.02	1.01	1.02	0.872	0.923					
ChaGo-K-1	0.509	0.455	0.511	0.467	0.411	0.954	0.952	0.966	0.972	0.897						0.205	0.202	0.21	0.192	0.21
EBC-1											0.835	0.713	1.01	0.715	0.822					
EKVX		0.213	0.235	0.214	0.199	0.35	0.333	0.343		0.295		0.779	0.786	0.706	0.944		0.409	0.405	0.443	0.333
EMC-BAC-2	0.485	0.494	0.524	0.53	0.457	0.434	0.473	0.509	0.524	0.51	0.701	0.714	0.841	0.767	0.783	0.273	0.271	0.287	0.264	0.261
EPLC-272H	0.317	0.212	0.285	0.305	0.257	0.299	0.331	0.327	0.295	0.329	0.999	0.902	1.12	1.07	0.898	0.342	0.352	0.361	0.357	0.244
H3255	0.388	0.277	0.374	0.315	0.407	0.294	0.35	0.299	0.321	0.326		0.84	0.766	0.49	0.675	0.437	0.712	0.502	0.687	0.608
HARA		0.417	0.399	0.398	0.424	0.271		0.244	0.254	0.254	0.798	0.621	0.809	0.727	0.822		0.352	0.126	0.0979	0.104
HCC-15	0.448	0.453	0.497	0.459	0.405	0.658	0.74	0.799	0.739	0.77	0.8	0.873	0.976	0.85	0.916	0.491	0.426	0.433	0.387	0.243
HCC-44	0.236	0.188	0.213	0.323	0.185	0.973	0.95	0.985	0.863	0.962	0.748	0.752	0.88	0.69	0.834	0.865	1.13	0.876	0.799	0.599
HCC-78	0.724	0.638	0.752	0.663	0.718	0.436	0.451	0.497	0.488	0.534	0.342	0.188	0.438	0.306	0.332	0.338	0.446	0.423	0.447	0.454
HCC-366		0.59		0.572	0.575		0.39	0.388	0.407	0.375	0.33	0.294	0.376	0.315	0.382		0.0721		0.0725	0.0736

Cell Line	relative viability (Masitinib + Phenformin; first compound 0.01 µM)	relative viability (Masitinib + Phenformin; first compound 0.03162 µM)	relative viability (Masitinib + Phenformin; first compound 0.1 µM)	relative viability (Masitinib + Phenformin; first compound 0.3162 µM)	relative viability (Masitinib + Phenformin; first compound 1 µM)	relative viability (Masitinib + Palbociclib; first compound 0.01 µM)	relative viability (Masitinib + Palbociclib; first compound 0.03162 µM)	relative viability (Masitinib + Palbociclib; first compound 0.1 µM)	relative viability (Masitinib + Palbociclib; first compound 0.3162 µM)	relative viability (Masitinib + Palbociclib; first compound 1 µM)	relative viability (Masitinib + Alpelisib; first compound 0.01 µM)	relative viability (Masitinib + Alpelisib; first compound 0.03162 µM)	relative viability (Masitinib + Alpelisib; first compound 0.1 µM)	relative viability (Masitinib + Alpelisib; first compound 0.3162 µM)	relative viability (Masitinib + Alpelisib; first compound 1 µM)	relative viability (Masitinib + Tozasertib; first compound 0.01 µM)	relative viability (Masitinib + Tozasertib; first compound 0.03162 µM)	relative viability (Masitinib + Tozasertib; first compound 0.1 µM)	relative viability (Masitinib + Tozasertib; first compound 0.3162 µM)	relative viability (Masitinib + Tozasertib; first compound 1 µM)
HCC-827	0.395	0.433	0.382	0.411	0.318	0.395	0.466	0.389	0.613	0.441	0.91	0.994	1.1	0.928	0.997	0.378	0.444	0.444	0.457	0.514
HOP-62	0.55	0.744	0.668	0.827	0.691	0.455	0.447	0.59	0.438	0.506	0.777	1.09	1.18	1.07	0.83	0.366	0.349	0.408	0.414	0.395
IA-LM											0.823	0.758	1.07	0.762	0.787					
LC-2-ad	0.517	0.573	0.622	0.627	0.557	0.494	0.474	0.544	0.47	0.503	0.866	0.822	0.843	0.815	0.844	0.426	0.443	0.435	0.391	0.384
LCLC-97TM1		0.458	0.407	0.492	0.446	0.192	0.15	0.25	0.285	0.208	0.25	0.241	0.275	0.402	0.27		0.38	0.261	0.247	0.286
LCLC-103H	0.339	0.348	0.306	0.344	0.293		0.471	0.458	0.511	0.475	0.711	0.913	0.917	0.992	0.971	0.43	0.497	0.506	0.443	0.434
LK-2	0.481	0.347	0.423	0.535	0.43	0.691	0.697	0.666	0.76	0.762	1.28	0.609	1.38	1.15	1.3	0.177	0.167	0.177	0.158	0.165
LOU-NH91	0.656	0.606	0.683	0.54	0.605	0.564	0.47	0.57	0.562	0.527	0.711	0.662	0.819	0.683	0.713	0.641	0.666	0.728	0.588	0.626
LU99A	0.868	0.807	0.859	0.856	0.703	0.431	0.417	0.419	0.428	0.418	0.554	0.544	0.549	0.547	0.449	0.289	0.221	0.282	0.269	0.257
LXF-289	0.461	0.514	0.477	0.522	0.451	0.553	0.6	0.655	0.627	0.595	0.886	1.01	1.03	1	1.02	0.214	0.174	0.2	0.232	0.177
NCI-H522	0.653		0.635	0.775	0.714	1.03	1.07	1.31	0.849	1.13						0.589		0.631	0.615	0.582
NCI-H596	0.836	0.769	0.824	0.831	0.691						0.341	0.462	0.625	0.397	0.435	0.972	0.73	1.07	1.08	0.716
NCI-H1299											1.1	1.1	1.27	1.11	1.05					
NCI-H1563	0.631	0.701	0.689	0.684	0.643						1.02	0.964	0.839	1.13	0.931					
NCI-H1648						0.297	0.313	0.289		0.228						0.477		0.452	0.397	0.431
NCI-H1650	0.419	0.334	0.447	0.371	0.362	0.242	0.321	0.254	0.298	0.376						0.346	0.329	0.297	0.326	0.23
NCI-H1703											0.226	0.255	0.228	0.171	0.197					
NCI-H1792	0.216	0.258	0.233	0.363	0.191	0.572	0.448	0.701	0.611	0.611	0.69	0.203	0.61	0.65	0.698					
NCI-H2342	0.71	0.567	0.615	0.614	0.573	0.532	0.524	0.566	0.507	0.529						0.464	0.51	0.523	0.514	0.469
SW 900	0.652	0.609	0.706	0.448	0.436	0.462	0.458	0.575	0.502	0.513						0.58	0.608	0.542	0.442	0.455
